Source: patent publication US20140120087A1, “TRIAZOLOPYRIDINES” (BAYER INTELLECTUAL PROPERTY GMBH, priority 2011, published 2014)

Legend:
Mps-1 kinase [1] = molecular target: T1, Mps-1 kinase (Homo sapiens, UniProt P33981); assay: Mps-1 kinase assay with 2 mM ATP (TR-FRET)
T1 sequence (P33981 1-857): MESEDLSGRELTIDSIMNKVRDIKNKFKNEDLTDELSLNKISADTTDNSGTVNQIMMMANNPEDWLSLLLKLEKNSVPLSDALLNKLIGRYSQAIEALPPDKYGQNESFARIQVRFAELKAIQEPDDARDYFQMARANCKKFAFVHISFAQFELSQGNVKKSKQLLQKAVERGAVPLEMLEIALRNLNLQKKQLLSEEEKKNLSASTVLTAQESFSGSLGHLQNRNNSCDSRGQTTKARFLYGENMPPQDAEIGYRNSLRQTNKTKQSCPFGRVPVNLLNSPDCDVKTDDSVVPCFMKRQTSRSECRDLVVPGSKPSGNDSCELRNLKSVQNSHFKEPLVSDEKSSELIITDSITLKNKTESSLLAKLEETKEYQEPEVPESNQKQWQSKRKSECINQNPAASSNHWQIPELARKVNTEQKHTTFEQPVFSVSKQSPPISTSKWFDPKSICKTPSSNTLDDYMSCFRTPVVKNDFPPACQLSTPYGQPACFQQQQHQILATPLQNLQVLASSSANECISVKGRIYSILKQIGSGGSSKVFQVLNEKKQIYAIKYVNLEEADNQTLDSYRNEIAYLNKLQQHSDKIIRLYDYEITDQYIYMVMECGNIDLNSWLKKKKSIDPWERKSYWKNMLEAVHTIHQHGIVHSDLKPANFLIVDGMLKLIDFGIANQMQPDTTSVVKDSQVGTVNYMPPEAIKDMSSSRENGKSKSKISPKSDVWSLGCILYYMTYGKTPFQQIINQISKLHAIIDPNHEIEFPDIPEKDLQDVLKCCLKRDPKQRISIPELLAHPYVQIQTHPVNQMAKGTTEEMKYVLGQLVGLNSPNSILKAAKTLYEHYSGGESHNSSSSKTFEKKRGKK

Mps-1 kinase [2] = molecular target: T1, Mps-1 kinase; assay: Mps-1 kinase assay with 10 μM ATP (TR-FRET)

| Compound | IC50 (Mps-1 kinase [1]) [nM] | IC50 (Mps-1 kinase [2]) [nM] |
| --- | --- | --- |
| CNC(=O)c1ccc(Nc2nc3ccc(-c4ccc(NC(=O)Cc5ccc(F)cc5)cc4)cn3n2)c(OC)c1 [Example 01.30, 4-{[6-(4-{[(4-fluorophenyl)acetyl]amino}phenyl)[1,2,4]triazolo[1,5-α]-pyridin-2-yl]amino}-3-methoxy-N-methylbenzamide] | ≤ 1 | ≤ 1 |
| COc1cc(C(=O)NCC(F)(F)F)ccc1Nc1nc2ccc(-c3ccc(NC(=O)Cc4ccc(F)cc4)cc3)cn2n1 [Example 01.31, 4-{[6-(4-{[(4-fluorophenyl)acetyl]amino}phenyl)[1,2,4]triazolo[1,5-α]-pyridin-2-yl]amino}-3-methoxy-N-(2,2,2-trifluoroethyl)benzamide] | 5 | ≤ 1 |
| CCOc1cc(S(C)(=O)=O)ccc1Nc1nc2ccc(-c3ccc(NC(=O)Cc4ccc(F)cc4)cc3)cn2n1 [Example 01.32, N-[4-(2-{[2-ethoxy-4-(methylsulfonyl)phenyl]amino}[1,2,4]triazolo[1,5-α]-pyridin-6-yl)phenyl]-2-(4-fluorophenyl)acetamide] | ≤ 1 | ≤ 1 |
| CCOc1cc(S(=O)(=O)CC)ccc1Nc1nc2ccc(-c3ccc(NC(=O)Cc4ccc(F)cc4)cc3)cn2n1 [Example 01.33, N-[4-(2-{[2-ethoxy-4-(ethylsulfonyl)phenyl]amino}[1,2,4]triazolo[1,5-α]-pyridin-6-yl)phenyl]-2-(4-fluorophenyl)acetamide] | 1.3 | ≤ 1 |
| CS(=O)(=O)c1ccc(Nc2nc3ccc(-c4ccc(NC(=O)Cc5ccc(F)cc5)cc4)cn3n2)c(OCC(F)(F)F)c1 [Example 01.34, 2-(4-fluorophenyl)-N-[4-(2-{[4-(methylsulfonyl)-2-(2,2,2-trifluoroethoxy)-phenyl]amino}[1,2,4]triazolo[1,5-α]pyridin-6-yl)phenyl]acetamide] | ≤ 1 | ≤ 1 |
| CS(=O)(=O)c1ccc(Nc2nc3ccc(-c4ccc(NC(=O)Cc5ccc(F)cc5)cc4)cn3n2)c(OC(F)F)c1 [Example 01.35, N-[4-(2-{[2-(difluoromethoxy)-4-(methylsulfonyl)phenyl]amino}[1,2,4]-triazolo[1,5-α]pyridin-6-yl)phenyl]-2-(4-fluorophenyl)acetamide] | 1.2 | ≤ 1 |
| CCS(=O)(=O)c1ccc(Nc2nc3ccc(-c4ccc(NC(=O)Cc5ccc(F)cc5)cc4)cn3n2)c(OC(F)F)c1 [Example 01.36, N-[4-(2-{[2-(difluoromethoxy)-4-(ethylsulfonyl)phenyl]amino}[1,2,4]-triazolo[1,5-α]pyridin-6-yl)phenyl]-2-(4-fluorophenyl)acetamide] | ≤ 1 | ≤ 1 |
| CS(=O)(=O)c1ccc(Nc2nc3ccc(-c4ccc(NC(=O)Cc5ccc(F)cc5)cc4)cn3n2)c(OC2CC2)c1 [Example 01.37, N-[4-(2-{[2-(cyclopropyloxy)-4-(methylsulfonyl)phenyl]amino}[1,2,4]-triazolo[1,5-α]pyridin-6-yl)phenyl]-2-(4-fluorophenyl)acetamide] | 1.6 | ≤ 1 |
| CCOc1cc(S(C)(=O)=O)ccc1Nc1nc2ccc(-c3ccc(C(=O)NCc4ccc(F)cc4)cc3)cn2n1 [Example 02.25, 4-(2-{[2-ethoxy-4-(methylsulfonyl)phenyl]amino}[1,2,4]triazolo[1,5-α]-pyridin-6-yl)-N-(4-fluorobenzyl)benzamide] | 3.3 | ≤ 1 |
| CCOc1cc(S(=O)(=O)CC)ccc1Nc1nc2ccc(-c3ccc(C(=O)NCc4ccc(F)cc4)cc3)cn2n1 [Example 02.26, 4-(2-{[2-ethoxy-4-(ethylsulfonyl)phenyl]amino}[1,2,4]triazolo[1,5-α]-pyridin-6-yl)-N-(4-fluorobenzyl)benzamide] | 6.1 | ≤ 1 |
| CS(=O)(=O)c1ccc(Nc2nc3ccc(-c4ccc(C(=O)NCc5ccc(F)cc5)cc4)cn3n2)c(OCC(F)(F)F)c1 [Example 02.27, N-(4-fluorobenzyl)-4-(2-{[4-(methylsulfonyl)-2-(2,2,2-trifluoroethoxy)-phenyl]amino}[1,2,4]triazolo[1,5-α]pyridin-6-yl)benzamide] | ≤ 1 | ≤ 1 |
| CS(=O)(=O)c1ccc(Nc2nc3ccc(-c4ccc(C(=O)NCc5ccc(F)cc5)cc4)cn3n2)c(OC(F)F)c1 [Example 02.28, 4-(2-{[2-(difluoromethoxy)-4-(methylsulfonyl)phenyl]amino}[1,2,4]triazolo-[1,5-α]pyridin-6-yl)-N-(4-fluorobenzyl)benzamide] | 3.5 | ≤ 1 |
| CS(=O)(=O)c1ccc(Nc2nc3ccc(-c4ccc(C(=O)NCc5ccc(F)cc5)cc4)cn3n2)c(OC2CC2)c1 [Example 02.29, 4-(2-{[2-(cyclopropyloxy)-4-(methylsulfonyl)phenyl]amino}[1,2,4]triazolo-[1,5-α]pyridin-6-yl)-N-(4-fluorobenzyl)benzamide] | 7.5 | ≤ 1 |

More lines, now with the values ahead:

| IC50 (Mps-1 kinase [1]) [nM] | IC50 (Mps-1 kinase [2]) [nM] | Compound |
| --- | --- | --- |
| ≤ 1 | ≤ 1 | COc1cc([S@@+](C)[O-])ccc1Nc1nc2ccc(-c3ccc(NC(=O)Cc4ccc(F)cc4)cc3)cn2n1 (stereo in doubt) [Example 12.13, 2-(4-fluorophenyl)-N-[4-(2-{[2-methoxy-4-(methyl-sulfinyl)phenyl]amino}-[1,2,4]triazolo[1,5-a]pyridin-6-yl)phenyl]acetamide] |
| 8.5 | ≤ 1 | COc1cc([S@@+](C)[O-])c(F)cc1Nc1nc2ccc(-c3ccc(NC(=O)Cc4ccc(F)cc4)cc3)cn2n1 (stereo in doubt) [Example 12.14, N-[4-(2-{[5-fluoro-2-methoxy-4-(methylsulfinyl)-phenyl]amino}[1,2,4]-triazolo[1,5-a]pyridin-6-yl)-phenyl]-2-(4-fluorophenyl)-acetamide] |
| ≤ 1 | ≤ 1 | C[S@@+]([O-])c1ccc(Nc2nc3ccc(-c4ccc(NC(=O)Cc5ccc(F)cc5)cc4)cn3n2)c(OCC(F)(F)F)c1 (stereo in doubt) [Example 12.24, 2-(4-fluorophenyl)-N-[4-(2-{[4-(methylsulfinyl)-2-(2,2,2-trifluoroethoxy)-phenyl]amino}[1,2,4]-triazolo[1,5-a]pyridin-6-yl)phenyl]acetamide] |
| 1.4 | ≤ 1 | Cc1cc([S@@+](C)[O-])ccc1Nc1nc2ccc(-c3ccc(NC(=O)Cc4ccc(F)cc4)cc3)cn2n1 (stereo in doubt) [Example 12.33, 2-(4-fluorophenyl)-N-[4-(2-{[2-methyl-4-(methyl-sulfinyl)phenyl]amino}-[1,2,4]triazolo[1,5-a]pyridin-6-yl)phenyl]acetamide] |
| 2.6 | ≤ 1 | COc1cc([S@@+](C)[O-])ccc1Nc1nc2ccc(-c3ccc(C(=O)NCc4ccc(F)cc4)cc3)cn2n1 (stereo in doubt) [Example 12.51, N-(4-fluorobenzyl)-4-(2-{[2-methoxy-4-(methylsulfinyl)-phenyl]amino}[1,2,4]-triazolo[1,5-a]pyridin-6-yl)-benzamide] |
| 4.5 | ≤ 1 | Cc1cc([S@@+](C)[O-])ccc1Nc1nc2ccc(-c3ccc(C(=O)NCc4ccc(F)cc4)cc3)cn2n1 (stereo in doubt) [Example 12.69, N-(4-fluorobenzyl)-4-(2-{[2-methyl-4-(methylsulfinyl)-phenyl]amino}[1,2,4]triazolo [1,5-a]pyridin-6-yl)-benzamide] |
| 5.1 | ≤ 1 | Cc1cc([S@@+](C)[O-])ccc1Nc1nc2ccc(-c3ccc(C(=O)NCc4ccc(Cl)cc4)cc3)cn2n1 (stereo in doubt) [Example 12.75, N-(4-chlorobenzyl)-4-(2-{[2-methyl-4-(methylsulfinyl)-phenyl]amino}[1,2,4]triazolo [1,5-a]pyridin-6-yl)-benzamide] |
| 7.6 | ≤ 1 | Cc1ccc(CNC(=O)c2ccc(-c3ccc4nc(Nc5ccc([S@@+](C)[O-])cc5C)nn4c3)cc2)cc1 (stereo in doubt) [Example 12.78, N-(4-methylbenzyl)-4-(2-{[2-methyl-4-(methylsulfinyl)-phenyl]amino}[1,2,4]triazolo [1,5-a]pyridin-6-yl)-benzamide] |
| 15 | ≤ 1 | Cc1cc(-c2ccc3nc(Nc4ccc(S(C)(=O)=O)cc4OCC(F)(F)F)nn3c2)ccc1C(=O)NCc1ccc(F)cc1 [Example 04.2, N-(4-fluorobenzyl)-2-methyl-4-(2-{[4-(methylsulfonyl)-2-(2,2,2-trifluoro-ethoxy)phenyl]amino}[1,2,4]triazolo[, 5-α]pyridin-6-yl)benzamide] |
|  | ≤ 1 | Cc1cc(C(=O)NCC(F)(F)F)ncc1Nc1nc2ccc(-c3ccc(NC(=O)Cc4ccc(F)cc4)cc3)cn2n1 [Example 12.38, 5-{[6-(4-{[(4-fluorophenyl)-acetyl]amino}phenyl)[1,2,4]triazolo[1,5-a]pyridin-2-yl]amino}-4-methyl-N-(2,2,2-trifluoroethyl)-pyridine-2-carboxamide] |
